Data taken from patent US11319315B2, “Cyclohexyl acid triazole azoles as LPA antagonists” (BRISTOL-MYERS SQUIBB COMPANY, priority 2017, dated 2022).

Molecular target: T1, human LPA1 (Homo sapiens, UniProt Q92633)
T1 construct: expressed in transfected cells; host or cells: Chinese hamster ovary (CHO) cells
Assay: LPA1 functional antagonist assay (LPA-induced calcium flux in CHO cells overexpressing human LPA1)
Type: cell-based
Settings: inhibition of calcium flux induced by 10 nM LPA, CHO cells overexpressing human LPA1; read-out: hLPA1 IC50
Method in brief: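 CHO cells overexpressing human LPA1, dye-loaded 30 min at 37 °C, then given compound (0.08 nM–5 μM final, 0.5% DMSO) in HBSS/20 mM HEPES/0.1% fatty-acid-free BSA for 20 min at room temperature before 10 nM LPA. IC50 as 50% inhibition of LPA-evoked calcium flux, 4-parameter logistic fit.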

T1 sequence (Q92633 whole entry): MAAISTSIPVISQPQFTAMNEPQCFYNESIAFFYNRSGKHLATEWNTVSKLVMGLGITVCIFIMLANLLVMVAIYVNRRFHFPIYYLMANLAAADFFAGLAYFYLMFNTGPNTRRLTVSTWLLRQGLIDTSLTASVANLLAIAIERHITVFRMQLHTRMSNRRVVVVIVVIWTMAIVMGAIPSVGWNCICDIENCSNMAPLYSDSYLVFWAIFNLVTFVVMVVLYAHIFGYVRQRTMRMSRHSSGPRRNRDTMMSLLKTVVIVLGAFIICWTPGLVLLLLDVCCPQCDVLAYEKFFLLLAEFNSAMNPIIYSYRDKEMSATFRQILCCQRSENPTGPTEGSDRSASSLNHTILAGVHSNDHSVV

Row | SMILES | IC50
1 | CCCOc1nnn(Cc2c(-c3ccc(O[C@H]4CCC[C@@H](C(=O)O)C4)c(C)n3)nnn2C)n1 [Example 347, (1R,3S)-3-[(2-methyl-6-{1-methyl-5-[(5-propoxy-2H-1,2,3,4-tetrazol-2-yl)methyl]-1H-1,2,3-triazol-4-yl}pyridin-3-yl)oxy]cyclohexane-1-carboxylic acid] | 270 nM
2 | Cn1nnc(-c2ccc(O[C@H]3CCC[C@H](C(=O)O)C3)cn2)c1CNc1noc(C2CCCC2)n1 [Example 289, (1S,3S)-3-((6-(5-(((5-cyclopentyl-1,2,4-oxadiazol-3-yl)amino)methyl)-1-methyl-1H-1,2,3-triazol-4-yl)pyridin-3-yl)oxy)cyclohexane-1-carboxylic acid] | 50.7 nM
3 | Cc1nc(-c2nnn(C)c2CNc2noc(C3CC(F)(F)C3)n2)ccc1O[C@H]1CCC[C@H](C(=O)O)C1 [Example 153] | 46.1 nM
4 | CCCCc1nnn(Cc2c(-c3ccc(O[C@H]4CCC[C@H](C(=O)O)C4)cn3)nnn2C)n1 [Example 257, (1S,3S)-3-((6-(5-((5-butyl-2H-tetrazol-2-yl)methyl)-1-methyl-1H-1,2,3-triazol-4-yl)pyridin-3-yl)oxy)cyclohexane-1-carboxylic acid] | 12.5 nM
5 | Cn1nnc(-c2ccc(O[C@H]3CCC[C@H](C(=O)O)C3)cn2)c1Cn1nnnc1CC1CC1 [Example 251, (1S,3S)-3-((6-(5-((5-(cyclopropylmethyl)-1H-tetrazol-1-yl)methyl)-1-methyl-1H-1,2,3-triazol-4-yl)pyridin-3-yl)oxy)cyclohexane-1-carboxylic acid] | 125 nM
6 | CCOC1(c2nc(NCc3c(-c4ccc(O[C@H]5CCC[C@H](C(=O)O)C5)c(C)n4)nnn3C)no2)CC1 [Example 225, (1S,3S)-3-((6-(5-(((5-(1-ethoxy-cyclopropyl)-1,2,4-oxadiazol-3-yl)amino)methyl)-1-methyl-1H-1,2,3-triazol-4-yl)-2-methylpyridin-3-yl)oxy)cyclohexane-1-carboxylic acid] | 1320 nM
7 | Cc1nc(-c2nnn(C)c2Cn2nnc([C@H]3CCCO3)n2)ccc1O[C@H]1CCC[C@H](C(=O)O)C1 [Example 297, (1S,3S)-3-({2-methyl-6-[1-methyl-5-({5-[(2R)-oxolan-2-yl]-2H-1,2,3,4-tetrazol-2-yl}methyl)-1H-1,2,3-triazol-4-yl]pyridin-3-yl}oxy)cyclohexane-1-carboxylic acid] | 92 nM
8 | Cc1nc(-c2nnn(C)c2CNc2noc(C3CCCO3)n2)ccc1O[C@H]1CCC[C@H](C(=O)O)C1 (mixture of isomers) [Example 221, (1S,3S)-3-((2-methyl-6-(1-methyl-5-(((5-(tetrahydrofuran-2-yl)-1,2,4-oxadiazol-3-yl)amino)methyl)-1H-1,2,3-triazol-4-yl)pyridin-3-yl)oxy) cyclohexane-1-carboxylic acid] | 221 nM
9 | CC(C)c1nc(NCc2c(-c3ccc(O[C@H]4CCC[C@H](C(=O)O)C4)cn3)nnn2C)no1 [Example 293, (1S,3S)-3-((6-(5-(((5-isopropyl-1,2,4-oxadiazol-3-yl)amino)methyl)-1-methyl-1H-1,2,3-triazol-4-yl)pyridin-3-yl)oxy)cyclohexane-1-carboxylic acid] | 613 nM
10 | Cc1nc(-c2nnn(C)c2CNc2noc(C3CC3(C)C)n2)ccc1O[C@H]1CCC[C@H](C(=O)O)C1 (stereo partly drawn) [Example 182] | 17 nM
11 | Cc1nc(-c2nnn(C)c2CNc2noc(C3CC34CC4)n2)ccc1O[C@H]1CCC[C@H](C(=O)O)C1 (stereo partly drawn) [Example 204] | 18.1 nM

Same assay, conditions: read-out: hLPA1 IC50

Row | SMILES | IC50
12 | Cc1ccccc1-n1nnc(NCc2c(-c3ccc(O[C@H]4CCC[C@H](C(=O)O)C4)c(C)n3)nnn2C)n1 [Example 381, (1S,3S)-3-((2-methyl-6-(1-methyl-5-(((2-(o-tolyl)-2H-tetrazol-5-yl)amino)methyl)-1H-1,2,3-triazol-4-yl)pyridin-3-yl)oxy)cyclohexane-1-carboxylic acid] | 313 nM
